In publication PMC8037406, “Symbiotic NCR Peptide Fragments Affect the Viability, Morphology and Biofilm Formation of Candida Species” (International Journal of Molecular Sciences, 2021):
In brackets after ≈: the same amount, converted by molar mass. Read-outs that look alike come from different tables or passages of the source.

Tests used:
Candida glabrata CBS 138 = assay: microbe, parasite or virus in culture; assay type: cell-based; details: micro-dilution, YNB medium, 4 × 10^4 cell/mL, 48 h, 30 °C, OD 620 nm, MIC = growth inhibition ≥90%, peptides 25 to 1.56 µM, fluconazole 200 to 0.78 µM, three biological repeats in triplicates; for MIC: Nakaseomyces glabratus, CBS138, read-out: Minimal inhibitory concentration, Cg CBS 138; for all read-outs here: key: -: no growth inhibition was observed
Method: (§1) The antifungal activity of all the 14 peptides was tested against the following opportunistic human pathogen Candida species and strains: C. albicans strains ATCC 10231, SC 5314 and SZMC 1458, C. auris 0381, C. glabrata CBS 138, C. parapsilosis CBS 604 and C. tropicalis CBS 94.
(§2) All the Candida strains (Table 4) were grown overnight in YPD medium (1% pepton, 1% dextrose, 0.5% yeast extract) at 30 °C in water bath shaker prior to each experiments. The cells were harvested by centrifugation (5 min, 3000× g) washed twice with sterile distilled water and suspended in 5-fold diluted Difco Yeast Nitrogen Base w/o Amino Acids medium (Becton, Dickinson and Company, Sparks, MD, USA) supplemented with 1% dextrose, referred to as YNB medium in the text. Cells were counted in Bürker chamber and diluted to the proper concentration.
(§3) The growth inhibition of the peptides listed in Table 1 was tested in 96-well microtiter plates on Candida strains. The minimal inhibitory concentration (MIC) was determined with the micro-dilution method by adding 5 µL serially two-fold-diluted peptide solution to 95 µL of cell suspension (4 × 10^4 cell/mL) in YNB medium. After 48 h of incubation at 30 °C the optical density of the cultures was measured at 620 nm in SPECTROstar Nano plate reader (BMG LabTech, Offenburg, Germany). Minimal inhibitory concentration was defined as growth inhibition ≥90% compared to 100% growth of the untreated control. The experiments were carried out in three biological repeats always in triplicates.

[1] = tested on: Candida albicans ATCC 10231; assay: microbe, parasite or virus in culture; assay type: cell-based; details: micro-dilution, YNB medium, 4 × 10^4 cell/mL, 48 h, 30 °C, OD 620 nm, MIC = growth inhibition ≥90%, peptides 25 to 1.56 µM, fluconazole 200 to 0.78 µM, three biological repeats in triplicates; for MIC: Candida albicans, ATCC10231, read-out: Minimal inhibitory concentration, Ca ATCC 10231; for all read-outs here: key: -: no growth inhibition was observed
Method: as §1, §2, §3

Candida auris 0381 = assay: microbe, parasite or virus in culture; assay type: cell-based; details: micro-dilution, YNB medium, 4 × 10^4 cell/mL, 48 h, 30 °C, OD 620 nm, MIC = growth inhibition ≥90%, peptides 25 to 1.56 µM, fluconazole 200 to 0.78 µM, three biological repeats in triplicates; for MIC: Candidozyma auris, 0381, read-out: Minimal inhibitory concentration, Cau 0381; for all read-outs here: key: -: no growth inhibition was observed
Method: as §1, §2, §3

[2] = tested on: Candida parapsilosis CBS 604; assay: microbe, parasite or virus in culture; assay type: cell-based; details: micro-dilution, YNB medium, 4 × 10^4 cell/mL, 48 h, 30 °C, OD 620 nm, MIC = growth inhibition ≥90%, peptides 25 to 1.56 µM, fluconazole 200 to 0.78 µM, three biological repeats in triplicates; for MIC: Lodderomyces parapsilosis, CBS604, read-out: Minimal inhibitory concentration, Cp CBS 604; for all read-outs here: key: -: no growth inhibition was observed
Method: as §1, §2, §3

[3] = tested on: Candida tropicalis CBS 94; assay: microbe, parasite or virus in culture; assay type: cell-based; details: micro-dilution, YNB medium, 4 × 10^4 cell/mL, 48 h, 30 °C, OD 620 nm, MIC = growth inhibition ≥90%, peptides 25 to 1.56 µM, fluconazole 200 to 0.78 µM, three biological repeats in triplicates; for MIC: Candida tropicalis, CBS94, read-out: Minimal inhibitory concentration, Ct CBS 94; for all read-outs here: key: -: no growth inhibition was observed
Method: as §1, §2, §3

Candida albicans SC 5314 = assay: microbe, parasite or virus in culture; assay type: cell-based; details: micro-dilution, YNB medium, 4 × 10^4 cell/mL, 48 h, 30 °C, OD 620 nm, MIC = growth inhibition ≥90%, peptides 25 to 1.56 µM, fluconazole 200 to 0.78 µM, three biological repeats in triplicates; for MIC: Candida albicans, SC5314, read-out: Minimal inhibitory concentration, Ca SC 5314; for all read-outs here: key: -: no growth inhibition was observed
Method: as §1, §2, §3

[4] = tested on: Candida albicans SZMC 1458; assay: microbe, parasite or virus in culture; assay type: cell-based; details: micro-dilution, YNB medium, 4 × 10^4 cell/mL, 48 h, 30 °C, OD 620 nm, MIC = growth inhibition ≥90%, peptides 25 to 1.56 µM, fluconazole 200 to 0.78 µM, three biological repeats in triplicates; for MIC: Candida albicans, SZMC1458, read-out: Minimal inhibitory concentration, Ca SZMC 1458; for all read-outs here: key: -: no growth inhibition was observed
Method: as §1, §2, §3

C. auris = details: for FIC: FIC index = FICA + FICB; for FICA / concentration of drug A for the indicated action: checkerboard, 72 h, 30 °C; for FICA: OD 620 nm
Method: Amphotericin B, due to its high toxicity was not included in this assay.
The effects of the different combinations of fluconazole and NCR335C17–33, NCR169C17–38 or NCR169C17–38ox were determined by standard checkerboard titration method. The fluconazole was tested in a concentration range from 6.25 to 75 µM, NCR169C17–38 and NCR169C17–38ox from 0.78 to 12.50 µM, NCR335C17–33 from 1.56 to 25 µM. The initial cell concentration in each well was 4 × 10^4 cell/mL. After the incubation for 72 h at 30 °C, the optical density of the cultures was detected at 620 nm in SPECTROstar Nano plate reader (BMG LabTech, Offenburg, Germany). The inhibitory concentrations were determined for each compound alone and in combinations. The experiments were carried out at least three times. The effect of combinations was evaluated by fractional inhibitory concentration (FIC) index. FIC = FICA + FICB. FICA = (MICA in combination)/(MICA alone); FICB = (MICB in combination)/(MICB alone)

[5] = fluconazole + NCR169C17–38, C. auris
[6] = fluconazole + NCR169C17–38ox, C. auris
[7] = C. auris, drug A fluconazole + drug B NCR169C17–38
[8] = C. auris, drug A fluconazole + drug B NCR335C17–33

RLNTTFRPLNFKMLR [NCR335N1–15, NCR335 N-terminal fragment, amino acids 1–15]
Minimal inhibitory concentration, Cg CBS 138 (Candida glabrata CBS 138): -
Minimal inhibitory concentration, Ca ATCC 10231 [1]: -
Minimal inhibitory concentration, Cau 0381 (Candida auris 0381): -
Minimal inhibitory concentration, Cp CBS 604 [2]: -
Minimal inhibitory concentration, Ct CBS 94 [3]: -
Minimal inhibitory concentration, Ca SC 5314 (Candida albicans SC 5314): -
Minimal inhibitory concentration, Ca SZMC 1458 [4]: -

KLRRANVRCRK [NCR335C17–27, NCR335C fragment 17–27]
Minimal inhibitory concentration, Cg CBS 138 (Candida glabrata CBS 138): -
Minimal inhibitory concentration, Ca ATCC 10231 [1]: -
Minimal inhibitory concentration, Cau 0381 (Candida auris 0381): -
Minimal inhibitory concentration, Cp CBS 604 [2]: -
Minimal inhibitory concentration, Ct CBS 94 [3]: -
Minimal inhibitory concentration, Ca SC 5314 (Candida albicans SC 5314): -
Minimal inhibitory concentration, Ca SZMC 1458 [4]: -

FWGQNRNIMKHRGQ [NCR335N16–29, NCR335 N-terminal fragment, amino acids 16–29]
Minimal inhibitory concentration, Cg CBS 138 (Candida glabrata CBS 138): -
Minimal inhibitory concentration, Ca ATCC 10231 [1]: -
Minimal inhibitory concentration, Cau 0381 (Candida auris 0381): -
Minimal inhibitory concentration, Cp CBS 604 [2]: -
Minimal inhibitory concentration, Ct CBS 94 [3]: -
Minimal inhibitory concentration, Ca SC 5314 (Candida albicans SC 5314): -
Minimal inhibitory concentration, Ca SZMC 1458 [4]: -

CKTNKDCP [NCR335C9–16, NCR335C fragment 9–16]
Minimal inhibitory concentration, Cg CBS 138 (Candida glabrata CBS 138): -
Minimal inhibitory concentration, Ca ATCC 10231 [1]: -
Minimal inhibitory concentration, Cau 0381 (Candida auris 0381): -
Minimal inhibitory concentration, Cp CBS 604 [2]: -
Minimal inhibitory concentration, Ct CBS 94 [3]: -
Minimal inhibitory concentration, Ca SC 5314 (Candida albicans SC 5314): -
Minimal inhibitory concentration, Ca SZMC 1458 [4]: -

HFSLILSDCKTNKDCP [NCR335C1–16, NCR335C fragment 1–16]
Minimal inhibitory concentration, Cg CBS 138 (Candida glabrata CBS 138): -
Minimal inhibitory concentration, Ca ATCC 10231 [1]: -
Minimal inhibitory concentration, Cau 0381 (Candida auris 0381): -
Minimal inhibitory concentration, Cp CBS 604 [2]: -
Minimal inhibitory concentration, Ct CBS 94 [3]: -
Minimal inhibitory concentration, Ca SC 5314 (Candida albicans SC 5314): -
Minimal inhibitory concentration, Ca SZMC 1458 [4]: -

OC(Cn1cncn1)(Cn1cncn1)c1ccc(F)cc1F [Fluconazole, fluconazole, reference compound]
FIC (C. auris; [5]): 0.625
FIC (C. auris; [6]): 0.5
FIC (C. auris; fluconazole + NCR335C17–33, C. auris, * fictitious value, could be lower): ≤ 1.125 *
FICA (C. auris; [7]): 0.5
FICA (C. auris; [8]): 1
concentration of drug A for the indicated action (C. auris; [7]): 12.50 µM
concentration of drug A for the indicated action (C. auris; C. auris, drug A fluconazole + drug B NCR169C17–38ox): 6.25 µM
concentration of drug A for the indicated action (C. auris; [8]): 25 µM
Action (C. auris; [5]): Additive
Action (C. auris; [6]): Synergism
reduction of MIC in the synergistic combination (C. auris; fluconazole + NCR169C17–38ox, C. auris, compared with single use): 4 ×
Action (C. auris; fluconazole + NCR335C17–33, C. auris): Indifferent
MIC (Candida glabrata CBS 138): 200 µM (≈ 61.3 µg/mL)
MIC [1]: 200 µM (≈ 61.3 µg/mL)
MIC (Candida auris 0381): 25 µM (≈ 7.66 µg/mL)
MIC [2]: 6.25 µM (≈ 1.91 µg/mL)
MIC [3]: 100 µM (≈ 30.6 µg/mL)
MIC (Candida albicans SC 5314): 12.5 µM (≈ 3.83 µg/mL)
MIC [4]: 1.56 µM (≈ 0.478 µg/mL)

C[C@@H]1[C@H](O)[C@@H](C)/C=C/C=C/C=C/C=C/C=C/C=C/C=C/[C@H](O[C@@H]2O[C@H](C)[C@@H](O)[C@H](N)[C@@H]2O)C[C@@H]2O[C@](O)(C[C@@H](O)C[C@@H](O)[C@H](O)CC[C@@H](O)C[C@@H](O)CC(=O)O[C@H]1C)C[C@H](O)[C@H]2C(=O)O [Amphotericin B, amphotericin B, reference compound]
MIC (Candida glabrata CBS 138): 1.56 µM (≈ 1.44 µg/mL)
MIC [1]: 3.12 µM (≈ 2.88 µg/mL)
MIC (Candida auris 0381): 6.25 µM (≈ 5.78 µg/mL)
MIC [2]: 3.12 µM (≈ 2.88 µg/mL)
MIC [3]: 6.25 µM (≈ 5.78 µg/mL)
MIC (Candida albicans SC 5314): 3.12 µM (≈ 2.88 µg/mL)
MIC [4]: 3.12 µM (≈ 2.88 µg/mL)

HFSLILSD [NCR335C1–8, NCR335C fragment 1–8]
Minimal inhibitory concentration, Cg CBS 138 (Candida glabrata CBS 138): -
Minimal inhibitory concentration, Ca ATCC 10231 [1]: -
Minimal inhibitory concentration, Cau 0381 (Candida auris 0381): -
Minimal inhibitory concentration, Cp CBS 604 [2]: -
Minimal inhibitory concentration, Ct CBS 94 [3]: -
Minimal inhibitory concentration, Ca SC 5314 (Candida albicans SC 5314): -
Minimal inhibitory concentration, Ca SZMC 1458 [4]: -
